In the OPERA property sets (Mansouri et al. 2018):
Peptide text beside a SMILES is read from it.

Compound	logP
COc1cc(S(C)=O)ccc1-c1nc2cnncc2[nH]1 (stereo not drawn)	0.39
Clc1cccc(-c2cccc(Cl)c2Cl)c1	5.57
COc1cccc(-c2cc3ccccn3c2)c1	4.14
C=C(CC(=O)c1ccc(-c2ccccc2Cl)cc1)C(=O)O	3.32
Cc1ccc(O)c([N+](=O)[O-])c1	2.37
O=Nc1c(O)ccc2ccccc12	2.28
CSc1ccc(COC(=O)N(C)C)cc1	2.86
CNC(=O)Oc1cc(C)c(SC)c(C)c1	2.92
CC(O)CNCC(C)O (stereo not drawn)	-0.82
CC(C)CC(N)Cc1ccccc1 (stereo not drawn)	3.29
CC(C)NCC(O)COc1ccccc1 (stereo not drawn)	1.72
Clc1ccc(-c2cc(Cl)c(Cl)cc2Cl)cc1	6.67
C=C(CC(Cl)(Cl)Cl)c1ccccc1	4.56
CC(=Cc1ccccc1)[N+](=O)[O-]	2.52
O=C(O)CCCCCN1C(=O)C=CC1=O	1.15
CC(=O)Oc1ccccc1I	2.55
BrC(Br)(Br)Br	3.42
O=CN1CCCC1	-0.32
COc1ccccc1N	1.18
Brc1cc(Br)cc(Br)c1	4.51
COc1ccccc1S(I)=C(N(C)C)N(C)C (stereo not drawn)	-0.52
CCOC(=O)C(=Cc1ccc(F)cc1)C(=O)OCC	3.1
Oc1cccc(Br)c1	2.63
Cn1c(=O)sc2ccccc21	1.98

Compound	logP
CCOP(=O)(OCC)OCC	0.8
NC(Cc1ccc(F)cc1)C(=O)O (racemic)	-1.89
CC(C)I	2.89
c1ccnnc1	-0.72
O=C(O)COc1cccc(I)c1	2.44
CNC(=O)Oc1cc(C(C)C)cc(C(C)C)c1	3.79
OC(c1ccc(Cl)cc1)(c1cncnc1)c1ccccc1Cl (stereo not drawn)	3.6
C=C1C(=O)OC2CC(C)C3C=CC(=O)C3(C)C(O)C12 (stereo not drawn)	0.36
COc1ccccc1C(C)=O	1.82
O=C(O)COc1ccccc1I	2.33
COC(C)(C)CCCC(C)C/C=C/C(C)=C/C(=O)OC(C)C (stereo not drawn)	5.5
CCCCCCCC(C)=O	3.14
CC(=O)Nc1ccc(O)c(C(C)C)c1	1.71
CCOC(=O)NC(O)C(Cl)(Cl)Cl (stereo not drawn)	1.84
CCCCNC(=O)c1ccc(S(N)(=O)=O)cc1	1.05
CS(=O)(=O)ON1C(=O)c2ccc([N+](=O)[O-])cc2C1=O	1.71
CC(C)(C)C(=O)NC(CO)C(O)c1ccc([N+](=O)[O-])cc1 (stereo not drawn)	1.33
COC(=O)CCCO	-0.06
O=C1Cc2ccccc2N1	1.16
O=C(Nc1ccccc1)N(c1ccccc1)c1ccccc1	3.28
C(=Nc1ccccc1)c1ccccc1	2.82
Nc1ccc(C(=O)Oc2ccc(Cl)cc2)c(O)c1	3.6
CC(=O)NC(Cc1c[nH]c2ccccc12)C(=O)NCC(=O)NC(Cc1ccccc1)C(N)=O (stereo not drawn) (Ac-Trp-Gly-Phe-NH2; configuration not given here)	0.99
CC(=O)C(=Cc1cccc(Cl)c1)C(C)=O	2.26

Compound	logP
Nc1nc2c(ncn2[C@H]2C[C@H](O)[C@@H](CO)O2)c(=S)[nH]1	-0.56
CN(C)C(N(C)C)=S(I)c1ccc(O)cc1 (stereo not drawn)	-0.88
O=[N+]([O-])c1ccsc1	1.55
CCC[C@@H]1C[C@@H](C(=O)N[C@@H]([C@H]2O[C@H](SC)[C@H](O)[C@@H](O)[C@H]2O)[C@@H](C)O)N(C)C1	0.2
CCNC(=O)c1ccccc1	1.28
Cn1c(N)nc2ccccc21	0.95
O=C(O)CBr	0.41
COc1ccc2cccnc2c1	2.37
CCCCNc1nc(NC)nc(SC(F)F)n1	3.7
CSc1ccc(SC)nn1	1.85
Oc1cc(O)cc(O)c1	0.16
CCCCCCC(NC(C)=O)C(=O)OC (stereo not drawn)	1.7
CCN(CC)CCNC(=O)c1ccccc1	1.99
O=C(O)c1ccccc1C(=O)O	0.73
S=C=Nc1ccc(Br)cc1	4.03
O=c1[nH]cnc2nc[nH]c12	-1.11
CCOC(=O)N(C)C	0.89
Cc1cc(NC(N)=O)ccc1Br	2.49
O=[N+]([O-])c1ncn(CC(O)CCl)n1 (stereo not drawn)	0.05
CCN1CCN(CC)C1=S	1.13
C1CC1	1.72
Cc1cccc(Cl)c1	3.28
NC(=O)C(F)(F)F	0.12
COC(=O)/C=C\C(=O)OC	0.22

Compound	logP
COP(=O)(OC)C(O)C(Cl)(Cl)Cl (stereo not drawn)	0.51
CC[C@H](C)[C@H](NC(=O)[C@@H](NC(=O)[C@H](C)NC(C)=O)C(C)C)C(N)=O	-0.2
Nc1ccc(CO)cc1	-0.22
CCN(CCO)c1ccccc1	2.1
NS(=O)(=O)c1ccc(S(N)(=O)=O)cc1	-0.96
O=C1C=CC(=NBr)C=C1	1.12
O=[N+]([O-])c1cc(Cl)c(Cl)cc1Cl	3.48
COc1cc(Cl)c(Cl)cc1O	3.26
CCCCCCC(=O)NN	0.97
c1ccc2c(c1)ccc1c3ccc4ccccc4c3[nH]c21	6.4
CCc1cccc(N2C(=O)CCC2=O)c1	1.04
O=[N+]([O-])c1cccc(Br)c1	2.64
CCCCS	2.28
Cc1ccc(C=NO)cc1	2.4
CCOP(=S)(OCC)Oc1cc(C)nc(C(C)C)n1	3.81
CCCCCc1cc(OC)c(CC(C)N)cc1OC (stereo not drawn)	4.43
Oc1c(F)c(F)c(F)c(F)c1F	3.23
CC(=O)c1cnc2ccccc2c1	1.76
CCN(CC)CCNC(=O)c1cc([N+](=O)[O-])c(N)cc1OC	2.11
CC(=O)c1cccc(NC(=O)N(C)C)c1	0.95
O=Cc1ccc2c(c1)OCO2	1.05
CN(C)c1cccnn1	0.29
CCC(C)c1cc([N+](=O)[O-])cc(C(C)C)c1O (stereo not drawn)	4.19
CCc1ccc[nH]1	1.59

Compound	logP
O=C(NN=Cc1ccoc1)Nc1ccccc1	2.52
O=C(Nc1ccccc1)NC1CC1	1.65
Nc1ccccc1N	0.15
COC(=O)c1ccc(S(I)=C(N(C)C)N(C)C)cc1 (stereo not drawn)	-0.74
OB(O)c1ccccc1	1.58
O=C(O)C1COc2ccccc2O1 (stereo not drawn)	1.4
COC1CC(OC2CCC3(C)C(CCC4C3CCC3(C)C(C5=CC(=O)OC5)C(OC(C)=O)CC43O)C2)OC(C)C1O (stereo not drawn)	2.53
CC(=O)Oc1cccc2ccccc12	2.78
COC(=O)CCCc1ccccc1	2.77
NS(=O)(=O)NCCc1ccccc1	0.81
CCCl	1.43
CCC(C)C(NC(C)=O)C(=O)NC(Cc1ccccc1)C(=O)NC(C)C(N)=O (stereo not drawn) (Ac-Ile-Phe-Ala-NH2; configuration not given here)	0.52
CC1=C(O)C(=O)c2ccccc2C1=O	1.2
CN(C)c1cccc(O)c1	1.56
CCNc1ccccc1	2.16
CC(=O)CF	-0.39
CC(C)(C)C1Nc2cc(Cl)c(S(N)(=O)=O)cc2S(=O)(=O)N1 (stereo not drawn)	0.36
CC(=O)c1ccnc2cc(Cl)ccc12	2.62
CC(C)(C)NC[C@H](O)COc1nsnc1N1CCOCC1	1.83
CCCCCNc1nc(NC(C)C)nc(SC(F)F)n1	5.2
O=[N+]([O-])c1cccc(F)c1	1.9
CN(C)C(=O)OCc1ccc(Br)cc1	3.01
COC(=O)[C@@H]1C2CCC(C[C@@H]1OC(=O)c1ccccc1)N2C (stereo partly drawn)	2.3
COc1ccccc1OC(C)=O	1.38

Compound	logP
N#Cc1cnc2ccccc2c1	1.57
Cc1nnc(NS(=O)(=O)c2ccc(N)cc2)s1	0.54
CCN=C=S	1.47
COc1ccc(CC#N)cc1OC	1.15
CCNc1nc(NC(C)(C)C)nc(SC(F)F)n1	4.57
CCOc1ccc(O)cc1	1.81
CCn1cnc([N+](=O)[O-])n1	-0.19
Nc1ccnc2c([N+](=O)[O-])cccc12	1.31
NC12CC3CC(CC(C3)C1)C2	2.44
Nc1ccc(Cl)c(Cl)c1	2.69
OCC(O)CO	-1.76
O=C(CN1CCCCC1)Nc1ccc(F)cc1	2.7
CCOCCN(CCOCC)N=O	0.79
O=C(O)Cc1ccccc1Nc1cc(Cl)ccc1Cl	4.94
CCCCCC=O	1.78
CCCN1CCCC[C@H]1C(=O)Nc1c(C)cccc1C	2.9
CN(C)C(N(C)C)=S(I)c1c(Cl)cccc1Cl (stereo not drawn)	0
Nc1cc(N=O)ccc1O	0.03
CN(C)C(N(C)C)=S(I)c1ccc(Cl)cc1 (stereo not drawn)	-0.2
CCCNC(C)CC (stereo not drawn)	1.91
CC(C)(C)OC(N)=O	0.48
Oc1nc2ccccc2s1	1.76
CCCc1ncc([N+](=O)[O-])n1CCNC(=S)OC	1.94
Cn1cccc1C=NNC(=O)Nc1ccccc1	2.71

Compound	logP
c1ccc(-c2cc3ccccc3[nH]2)nc1	3.33
O=C(O)Cc1ccccc1F	1.5
COc1cc(S(=O)(=O)CCN(C)Cc2ccccc2)cc(OC)c1OC	2.18
NC(CO)C(=O)O (stereo not drawn)	-3.07
CCc1ccc(N)cc1	1.96
OCC(O)c1ccc(O)c(O)c1 (stereo not drawn)	-1.01
[O-][n+]1ccccc1	-1.2
O=Cc1cccc([N+](=O)[O-])c1	1.47
O=C(CI)NC(CO)C(O)c1ccc([N+](=O)[O-])cc1 (stereo not drawn)	1.03
NC(=O)C(=Cc1cccc(F)c1)C(N)=O	0.1
CCOc1ccc2cc[nH]c2c1	2.53
C#CCCC(C)=O	0.58
COCc1ccc([N+](=O)[O-])o1	0.89
CC(=O)Nc1ccccc1O	0.72
Oc1ccc(N=C=S)cc1	2.74
CN(C)c1ccc(C(=C2C=CC(=[N+](C)C)C=C2)c2ccccc2)cc1.[Cl-]	0.62
NC(=O)c1cnc2ccccc2c1	1.06
Nc1ccc(-c2nc([N+](=O)[O-])c[nH]2)cc1	0.86
O=C(NP(=O)(N1CC1)N1CC1)c1ccccc1I	1.05
CCCCOc1c(OC)cc(CCN)cc1OC	2.32
OCc1ccc2cccnc2c1	1.29
C=CCNCC	0.81
O=C(Nc1ccccc1)NC1CC(O)C(CO)OC1O (stereo not drawn)	-0.61
Clc1cc(Cl)c(-c2c(Cl)cc(Cl)cc2Cl)c(Cl)c1	7.55
